# A melting point compilation (Tetko et al.; mined from patent text by program, amines drawn as free bases though some values may be those of a salt)
row,Compound,melting point [°C]
1,CCOC(=O)C(=O)Nc1ccc(C)cc1[N+](=O)[O-],126
2,Cc1ccc(C2c3[nH]c4ccccc4c3CCN2C(=O)C=Cc2cc([N+](=O)[O-])ccc2Cl)cc1 (stereo not drawn),211 to 213
3,C#CC1(O)CCN(C(C)=O)CC1,132 to 134
4,CCOC(=O)c1sc(Cn2cc(Cl)cnc2=O)nc1C,169 to 171
5,Cn1c(=O)n(Cc2ccc(F)cc2)c(=O)c2cc(C(=O)c3nc(Br)c4ccccn34)ccc21,280
6,CCc1nc2c(C(F)(F)F)cccc2c(O)c1C(=O)O,174
7,COc1ccc(-n2c(=O)c(C(=O)C3=C(O)CCCC3=O)nc3c(Cl)cccc32)cc1,249 to 251
8,CC1=C(C(N)=O)C(c2cccc([N+](=O)[O-])c2)n2ccnc2N1 (stereo not drawn),238 to 240
9,[N-]=[N+]=NCCCC(=O)N1CCc2c(OC(CO)CO)ccc([N+](=O)[O-])c21,78 to 79
10,CNC(=NC#N)NCc1cccnc1,183 to 184
11,OCc1cc(Cl)c(Br)cn1,109 to 110
12,CCCc1cc(C(=O)NCCC(N)=O)ccc1OC(C(=O)NS(=O)(=O)c1ccc(C(C)C)cc1)c1ccc2c(c1)OCO2 (stereo not drawn),110 to 112
13,CON=C(C)c1ccc(NS(C)(=O)=O)c(Oc2ccc(F)cc2F)c1,118 to 120
14,N#CCOc1cc(Cl)c2c(=O)c(-c3ccccc3Cl)coc2c1,174 to 175
15,CC(C)(C)CC(C)(C)c1ccc(O)c(-n2nc3ccc(C(F)(F)F)cc3n2)c1,80 to 81
16,COC(=O)CCC(=O)c1ccc2c(c1)CC(CO)O2 (stereo not drawn),70 to 72
17,CN1CCCC(c2cccc(-n3cnc4cc(C(=O)OCC5CC5)ccc43)c2)C1 (stereo not drawn),111 to 113
18,O=C1CCc2cc(Br)c3c(c21)CCO3,149 to 150
19,CC(C)(C)OC(=O)N1C(=O)[C@H](O)[C@@H]1c1ccccc1,132
20,CN1CCN(S(=O)(=O)CCCO)CC1,90 to 93
21,CCCCc1nc(-c2ccc(N3CCN(C(=O)c4ccccc4C(F)(F)F)CC3)nn2)no1,175
22,CC(=O)NC(=CC(=O)[C@H](Cc1ccccc1)N(Cc1ccccc1)Cc1ccccc1)Cc1ccccc1,95 to 96
23,Cc1cc2c(c3ccc(=O)[nH]c13)OC(CNC(=O)[C@@H](C)NC(=O)OCc1ccccc1)C2 (stereo partly drawn),221 to 222
24,CNC(=O)c1ccc2c(c1)OC(c1ccccc1)(c1ccccc1)O2,144 to 145
25,O=[N+]([O-])c1ccc2oc(-c3ccco3)nc2c1,175 to 177

row,Compound,melting point [°C]
1,COc1ccc(Cn2c(=O)ccc3cnc(N4CCC[C@H]4CO)nc32)cc1Cl,142 to 143
2,NC(=O)N(O)Cc1ccc(OCCc2csc(-c3ccc(C(F)(F)F)cc3)n2)cc1,146 to 147
3,Cc1nc(-c2ccc(O)cc2)c(C(C)C)s1,165
4,O=C(O)Cc1ccc2c(c1)[nH]c1ccccc12,150 to 152
5,CC1(C(=O)c2c[nH]c3ncc(-c4cccc(N5CCCC5)c4)nc23)CCCCC1,180 to 182
6,CC(C)(Cl)C(=O)c1ccc(C(=O)c2ccc(C(=O)C(C)(C)Cl)cc2)cc1,82 to 83
7,NC(=O)c1ncn2c1[C@@H]1CCCN1C(=O)c1c-2ccc(F)c1F,221 to 224
8,O=S1(=O)c2cccc3cccc(c23)N1CCN1CCC(Cc2c[nH]c3ccccc23)CC1,184
9,COc1ccc(Cn2cnc3c(-c4ccco4)nc(C4CC4)nc32)cc1,115 to 116
10,CC1(C)CCC(C)(C)c2cc(OCc3ccc(C=O)cc3)ccc21,102 to 104
11,COc1ccc(-c2nn(CCCc3ccccc3)c(=O)cc2-c2ccncc2)cc1,67.7 to 68.3
12,Cc1[nH]c(=O)[nH]c1C(=O)Cc1ccccc1,239 to 240
13,CO[C@@H]1[C@H](O)[C@@H](CO)O[C@H]1n1cnc2c(N[C@H](C)Cc3ccc(Cl)s3)ncnc21,84 to 85
14,CCCCCCCCCCCCCCC(=O)C(=O)N[C@@H](CCCC)C(=O)NCC(=O)OC,65 to 67
15,CNC(=O)c1c(-c2ccccc2)noc1CC(O)c1ccc(C)cc1 (stereo not drawn),148 to 150
16,CC(=O)OCC(=O)C1=CCC2C3CCC4=CC(=O)CCC4(C)C3CCC12C (stereo not drawn),146 to 148
17,CC(C)OC(=O)C(C(=O)O)c1ccccc1 (stereo not drawn),64 to 66
18,Oc1ccc2nc(-c3ccc4ccccc4c3)oc2c1,226
19,CN(Cc1cc(C(F)(F)F)cc(C(F)(F)F)c1)C1CCN(c2ccc(OC[C@@]3(C)Cn4cc([N+](=O)[O-])nc4O3)cc2)CC1,194 to 195
20,CCOC(=O)c1c(-c2cc(C)c(O)c(C)c2)c(C)n2c1-c1cc(N)c(OC)cc1CC2,104 to 106
21,Oc1cc2c3ccc(O)c(O)c3n(Cc3ccccc3)c2cc1O,241 to 246
22,C1=C(CCc2ccccc2)CCN(Cc2n[nH]c3c2CCc2ccccc2-3)C1,173 to 174
23,CCCCCCCCCCCCCCCCNC(=O)C=CC(=O)O,46 to 49
24,COc1ccccc1CN[C@@H]1[C@@H]2CCN([C@H](CCc3ccccc3)C2)[C@@H]1C(c1ccccc1)c1ccccc1 (relative stereo),107 to 108
25,Cn1ncc2c(c1=O)C(Cc1ccccc1)NCCS2 (stereo not drawn),112 to 114

row,Compound,melting point [°C]
1,O=C1NC(=O)C(Cc2ccc3nc(Cc4ccc(Cl)cc4)oc3c2)S1 (stereo not drawn),220
2,CN=C(ON1C(=O)CCC1=O)c1ccccc1,119 to 120
3,O=c1c(Cl)c(Cl)cnn1C1OCCCC1Cl (stereo not drawn),109 to 110
4,CC(C)(NCCCn1cnc(CO)c1)c1ccc(-c2ccccc2)cc1,128 to 130
5,Cc1cc(Cl)cc(C(=O)NC(C)CSC[Si](C)(C)C)c1NC(=O)c1cc(Br)nn1-c1ncccc1Cl (stereo not drawn),151 to 153
6,O=C(Nc1ccc2ccc(Cl)nc2n1)Oc1ccccc1,208
7,CCOC(=O)c1ncn2c1CNc1ccccc1-2,248 to 250
8,CN(C)C1CNc2c(cc(Br)cc2[N+](=O)[O-])C1 (stereo not drawn),88 to 91
9,COc1ccc2cc(C#N)ccc2n1,163 to 165
10,COc1cccc(NC(=O)COC(C)=O)c1C#N,131 to 132
11,CCCCOC(=O)NCCc1ccc(OCC(O)CNC(C)C)nc1 (stereo not drawn),93 to 95
12,CCCC(=O)c1cnc2cc(COC(=O)c3ccccc3)ccc2c1Cl,66 to 68
13,Cc1ncsc1C(=O)Nc1ccc(-n2nc(C(F)(F)F)cc2C2CC2)cc1,137 to 141
14,N#Cc1cnc2sc(-c3ccc(C=O)cc3)cc2c1Nc1cccc2[nH]ccc12,> 245
15,Cc1cc2c(-c3ccccc3)c(C=O)n(C)c(=O)c2cc1C,178 to 179
16,O=C(NCCOc1ccc(CC(Oc2ccccc2)C(=O)O)cc1[N+](=O)[O-])c1ccc(-c2ccccn2)cc1 (stereo not drawn),178 to 179
17,Cc1sc(CCc2ccc(C=O)cc2)nc1-c1ccccc1,66 to 67
18,c1ccc(OCCSCc2nnc(-c3ccc(OCCCCN4CCCC4)cc3)o2)cc1,45
19,CCCCCCCCCCCCCCOc1ccc(C(=O)OC)o1,56 to 58
20,CCc1nc2ccccc2c(=O)n1CCNc1ccc(SC(C)(C)C(=O)O)cc1,124 to 126
21,CCOc1nc2cccc(C(=O)O)c2n1Cc1ccc(-c2ccccc2-c2nc(=O)o[nH]2)cc1,156 to 157
22,CC(C)CNc1cc[nH]c(=S)c1C#N,117 to 119
23,O=c1c2[nH]nnc2nc2sc(CCc3ccccc3)nn12,295 to 296
24,C#Cc1cn(C2CC(O)C(CO)O2)c(=O)n(C(=O)c2ccc(C)cc2)c1=O (stereo not drawn),176 to 179
25,COc1ccc(C(=O)NCCCCCCNC(=O)c2ccc(OC)cc2)cc1,177 to 178

row,Compound,melting point [°C]
1,COc1ccn2c(C)c(CCc3ccc4nc(N)oc4c3)nc2c1,220 to 221
2,O=C(Cl)c1c(Cl)nc2ccc(Br)cc2c1-c1ccccc1,166 to 170
3,c1cc(-c2n[nH]c3c2Cc2cc(CN4CCOCC4)ccc2-3)cs1,196 to 198
4,"CCN1CCCC1CNC(=O)c1c(O)c(Cl)cc(Cl)c1OC (single isomer, unassigned; (-))",48 to 49
5,CCOC(=O)c1cn(NC=O)c2nc(C)ccc2c1=O,214
6,CC1CCc2ncc(-c3ccccc3)c(=O)n21 (stereo not drawn),118 to 122
7,O=C(Nc1ccc([N+](=O)[O-])cc1O)OCc1ccccc1,200
8,O=C(CN1C(=O)CC1S(=O)Cc1ccccc1)NCCCCCCc1ccccc1 (stereo not drawn),138 to 140
9,CCc1cc(N(Cc2ccc(-c3ccccc3-c3nnn(C(c4ccccc4)(c4ccccc4)c4ccccc4)n3)cc2)C(C)=O)cc(CC)n1,98 to 102
10,CCN1CCC2(c3cccc(O)c3)Cc3[nH]c(C(=O)N(CC)CC)c(C)c3CC2C1 (stereo not drawn),221 to 223
11,COc1ccc(-c2cn(-c3cc4c(=O)n(NS(C)(=O)=O)c(=O)[nH]c4cc3C(F)(F)F)cn2)cc1,293 to 294
12,O=C(O)c1ncoc1-c1ccoc1,189 to 191
13,C/C(=C(\Br)C=O)c1ccc2c(c1)C(C)(C)CCC2(C)C,115 to 117
14,CC12CCC(C(=O)O)=CC1=CCC1C2CCC2(C)C(C(=O)N(C(=O)NC3CCCCC3)C3CCCCC3)CCC12 (stereo not drawn),253 to 255
15,CC(NSC(=O)OC(C)(C)C)C(=O)n1c(=O)[nH]c2ccccc21 (stereo not drawn),101
16,CCCCc1oc2ccccc2c1C(=O)NCc1ccc2c(-c3ccc(Cl)cc3)c(O)ccc2c1,122 to 124
17,COc1ccc(-c2oc3c(C(=O)O)cccc3c(=O)c2C)cc1,266 to 267
18,COCCc1nc2cnc3cc(OCc4ccccc4)ccc3c2n1CC(C)(C)O,170 to 172
19,CCCCCNC(=O)CC(c1ccc(OC)c(OC)c1)N1C(=O)c2ccccc2C1=O (stereo not drawn),140 to 142
20,CC(C)(C)OC(=O)N[C@H]1C=C[C@@H](C(=O)O)C1,153 to 155
21,O=C(O)Cc1ccc(C(=O)c2ccc(Cl)cc2)[nH]1,210
22,CCOC(=O)c1c2n(c3c(Cl)c(N4CCC(N(C)C)C4)c(F)cc3c1=O)C(C)S2 (stereo not drawn),131 to 133
23,O=C(O)COc1cc(F)ccc1C(=O)NCc1cccc([N+](=O)[O-])c1,148 to 151
